Test results as given in patent US20250090545A1, “METHODS AND COMPOSITIONS FOR TREATMENT OF PERIPHERAL NEUROPATHIES” (UNIVERSITY OF MANITOBA, priority 2013, published 2025).

How the values were obtained:
PGC-1α = PGC-1α transcriptional activity, luciferase reporter in adult sensory neurons; assay type: cell-based, rat; conditions: 1 μM; neurons from STZ-induced diabetic rats
Procedure: PGC-1α transcriptional activity was determined in dissociated adult sensory neurons derived from STZ-induced diabetic rats by transfection for two days with luciferase-based reporter plasmids by following the methods taught in the AMAXA® NUCLEOFECTOR® II Manual (www.amaxa.com; AMAX and NUCLEOFECTOR are registered trademarks of Amaxa GmBH Corp., Koln, Fed. Rep. Germany) and by Saleh et al. (2013, Ciliary neurotrophic factor activates NF-κB to enhance mitochondrial bioenergetics and prevent neuropathy in sensory neurons of streptozotocin-induced diabetic rodents. Neuropharmacology 65:65-75) (the luciferase-based reporter plasmids were a gift from Dr. Michael Czubryt, University of Manitoba).

[1] = tested on: STZ-induced diabetic rats; assay: Motor and sensory nerve conduction velocity in STZ-induced diabetic rats; assay type: in vivo, rat; conditions: 5 mg/kg s.c., 8 weeks; p<0.05 vs vehicle-treated diabetic rats
Procedure: The STZ rat is a model of type 1 diabetes. Rats were treated with 5 mg/kg (s.c.) pirenzepine for 8 weeks following the method taught by Calcutt et al. (2003, Therapeutic efficacy of sonic hedgehog protein in experimental diabetic neuropathy. J. Clin. Invest. 111:507-514). Nerve conduction velocities (NCV) were determined following the methods taught by Mizisin et al. (2004, Ciliary Neurotrophic Factor Improves Nerve Conduction and Ameliorates Regeneration Deficits in Diabetic Rats. Diabetes 53:1807-12). […] All data are group mean±SEM (N=5-6 group). Statistical analysis by one-way ANOVA with Dunnett's post-hoc test.

[2] = tested on: adult sensory neuron cultures derived from STZ-induced diabetic rats; assay: Neurite outgrowth in sensory neuron cultures transduced with dominant negative AMPK mutants; assay type: cell-based, rat; conditions: 1.0 μM pirenzepine; adenovirus dominant negative AMPK mutants AdDN1/AdDN2
Procedure: Adult sensory neuron cultures derived from STZ-induced diabetic rats were transduced for two days after treatment with 1.0 μM pirenzepine, with two adenovirus over-expressing dominant negative mutants of AMPK, i.e., AMPK subunit α1 and α2 mutants named “AdDN1” and “AdDN2” (the adenovirus over-expressing dominant negative mutants were gifts from Dr. Jason Dyck, University of Alberta) following the procedure taught by Roy Chowdhury et al., (2012).

[3] = tested on: cultured adult rat sensory neurons; assay type: cell-based; conditions: 1 μM; gp120 24 hours; P<0.05
Procedure: To further extend our investigation of the actions of muscarinic receptor antagonists on nerve growth, cultured adult rat sensory neurons were treated for 24 hours with recombinant gp120, an external coat protein of HIV that causes toxicity to sensory neurons in HIV neuropathy (FIG. 24). This toxicity leads to axon degeneration and neuronal cell death. Cultures were treated with 1 μM pirenzpeine and total neurite outgrowth determined. […] Values are means±SEM. n=6.

[4] = tested on: paclitaxel-treated Swiss Webster mice; assay type: in vivo, mouse; conditions: pirenzepine daily s.c. for 4 weeks (10 mg/kg/day, also printed 1 mg/kg/day)
Procedure: Swiss Webster mice were treated with paclitaxel (taxol; 5 mg/kg on days 1,3,5 and 7) to induce peripheral neuropathy. […] Data points are group mean of n=9-12/group±SEM. Significant differences were determined with a oneway ANOVA followed by Dunnett's post-hoc test.

[5] = tested on: adult sensory neurons from normal rats; assay: Neurite outgrowth of sensory neurons exposed to paclitaxel or oxaliplatin; assay type: cell-based, rat; conditions: 24 hours, pirenzepine 0.1, 1.0 or 10 μM
Procedure: Adult sensory neurons from normal rats were cultured for 24 hours in the presence of(A) paclitaxel (PX; 0.1 μM or 0.3 μM), or (B) oxaliplatin (OX; 3.0 μM). From time of plating some cultures were treated with 0.1, 1.0 or 10 μM pirenzepine (PZ). Levels of total neurite outgrowth were determined and presented as means±SEM, N=6-8/group. Significant differences were assessed in(A) by t-test, and in(B) by one-way ANOVA with Dunnett's post-hoc test.

[6] = tested on: DCA-treated Swiss Webster mice; conditions: pirenzepine 10 mg/kg/day s.c.
Procedure: Swiss Webster mice were treated with DCA (1 mg/kg/day s.c.) for 8 weeks to induce peripheral neuropathy following the method described for rats by Calcutt et al. (2009, Peripheral neuropathy in rats exposed to dichloroacetate. J. Neuropath. Exp. Neurol. 68:985-93). Some DCA-treated mice were also treated with pirenzepine (Pz: 10 mg/kg/day s.c.) for the duration of the study while others were treated with vehicle alone.

[7] = tested on: AMP-activated protein kinase (AMPK); assay: AMPK phosphorylation (Western blot) in cultured adult sensory neurons; assay type: cell-based, rat; conditions: 1.0 μM, 15-60 min
Procedure: Subsets of cultured adult sensory neurons derived from age-matched control rats or 3-5 month STZ-induced diabetic rats were treated with a 1.0 μM pirenzepine-HCl dosage. The first subset was processed immediately while the second, third and fourth subsets of the neurons from the control rats and the diabetic rats were processed after 15 min, after 30 min, and after 60 min respectively following treatment with pirenzepine. The cell cultures were lysed and then used to prepare Western blots which were then probed with antibodies against phosphorylated AMPK (P-AMPK), total AMPK (T-AMPK) and total ERK (T-ERK). […] Values are means±SEM, N=3/group. Statistical significance was analyzed using one-way ANOVA with Tukey's post-hoc test.

[8] = target: T1, type 1 muscarinic receptor (M1R) (Homo sapiens, UniProt P11229); conditions: cited from earlier work
T1 sequence (P11229 1-460): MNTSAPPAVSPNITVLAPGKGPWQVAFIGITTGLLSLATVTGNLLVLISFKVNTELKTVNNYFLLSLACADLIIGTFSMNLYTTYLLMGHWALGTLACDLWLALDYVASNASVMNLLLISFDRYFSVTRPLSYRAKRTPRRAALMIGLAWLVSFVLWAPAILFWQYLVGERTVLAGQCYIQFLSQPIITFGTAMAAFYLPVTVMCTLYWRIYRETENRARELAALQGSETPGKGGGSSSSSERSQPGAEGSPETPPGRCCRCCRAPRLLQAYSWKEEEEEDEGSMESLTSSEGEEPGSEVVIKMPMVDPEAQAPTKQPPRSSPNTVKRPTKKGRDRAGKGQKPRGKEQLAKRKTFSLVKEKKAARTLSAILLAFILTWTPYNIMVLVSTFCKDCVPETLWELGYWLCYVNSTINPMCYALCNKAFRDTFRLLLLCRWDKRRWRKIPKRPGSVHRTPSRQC

[9] = tested on: adult sensory neuron cultures from STZ-induced diabetic rats; assay: Mitochondrial respiration (OCR) in adult sensory neuron cultures; assay type: cell-based, rat; conditions: 1 μM for 3 h
Procedure: Mitochondrial respiration in adult mouse sensory neuron cultures from wild type control mice, M1 receptor knockout mice (M1R KO), and from diabetic mice that received dosing with 1 μM of VU0255035 for 3 h, were assessed following the methods taught by Roy Chowdhury et al. (2012). The M1R knockout mice were a gift from Dr. Jurgen Wess (Molecular Signaling Section, Laboratory of Bioorganic Chemistry, National Institute of Diabetes and Digestive and Kidney Diseases, National Institutes of Health).
This bioenergetics parameter, which is depressed in diabetes, is related to the capacity of cells to conduct respiration under conditions of stress or high ATP demand. In this regard we propose the stress is the presence of high intracellular glucose concentrations.

SMILES | transcriptional activity of PGC-1α (PGC-1α) | motor nerve conduction velocity (MNCV) slowing [1] | sensory nerve conduction velocity (SNCV) slowing [1] | pirenzepine-induced neurite outgrowth under blockage of AMPK signaling [2] | protection from gp120-induced neurite degeneration [3] | tactile allodynia (paw 50% tactile response threshold) [4] | thermal hyperalgesia (paw thermal response latency) [4] | reduced neurite outgrowth caused by oxaliplatin ([5]; oxaliplatin 3.0 μM) | reduced neurite outgrowth caused by paclitaxel ([5]; paclitaxel 0.1 or 0.3 μM) | depletion of paw skin IENF ([6]; 8 weeks) | paw thermal hypoalgesia ([6]; 8 weeks) | onset of MNCV slowing ([6]; after 4 weeks of exposure) | P-AMPK level ([7]; cultures from normal (age-matched control) rats) | P-AMPK level ([7]; cultures from type 1 (STZ) diabetic rats) | selectivity to M1R relative to M2, M3, M4 and M5 receptors [8] [times] | coupling efficiency [9] | oxygen consumption rate (OCR) [9] | respiratory control ratio [9] | spare respiratory capacity ([9]; compared to controls)
CN1CCN(CC(=O)N2c3ccccc3C(=O)Nc3cccnc32)CC1 [pirenzepine] | enhanced | attenuated | attenuated | completely inhibited | complete protection | prevented | prevented | prevented | prevented | prevented | prevented | delayed onset | significantly activated | significantly activated |  |  |  |  | 
O=C(CCNS(=O)(=O)c1cccc2nsnc12)N1CCN(c2ccncc2)CC1 [VU0255035] |  |  |  |  |  |  |  |  |  |  |  |  |  |  | 75 | not dissimilar | increased | not dissimilar | significantly increased
